The target of test [1] is T1, Estrogen receptor (Homo sapiens) (UniProt Q92731+P03372). In words: Antagonist efficacy for Estrogen receptor. Type of test: functional.
Test [2] has as its target T2, Progesterone receptor (Homo sapiens, UniProt P06401).
T2 sequence (P06401 whole entry): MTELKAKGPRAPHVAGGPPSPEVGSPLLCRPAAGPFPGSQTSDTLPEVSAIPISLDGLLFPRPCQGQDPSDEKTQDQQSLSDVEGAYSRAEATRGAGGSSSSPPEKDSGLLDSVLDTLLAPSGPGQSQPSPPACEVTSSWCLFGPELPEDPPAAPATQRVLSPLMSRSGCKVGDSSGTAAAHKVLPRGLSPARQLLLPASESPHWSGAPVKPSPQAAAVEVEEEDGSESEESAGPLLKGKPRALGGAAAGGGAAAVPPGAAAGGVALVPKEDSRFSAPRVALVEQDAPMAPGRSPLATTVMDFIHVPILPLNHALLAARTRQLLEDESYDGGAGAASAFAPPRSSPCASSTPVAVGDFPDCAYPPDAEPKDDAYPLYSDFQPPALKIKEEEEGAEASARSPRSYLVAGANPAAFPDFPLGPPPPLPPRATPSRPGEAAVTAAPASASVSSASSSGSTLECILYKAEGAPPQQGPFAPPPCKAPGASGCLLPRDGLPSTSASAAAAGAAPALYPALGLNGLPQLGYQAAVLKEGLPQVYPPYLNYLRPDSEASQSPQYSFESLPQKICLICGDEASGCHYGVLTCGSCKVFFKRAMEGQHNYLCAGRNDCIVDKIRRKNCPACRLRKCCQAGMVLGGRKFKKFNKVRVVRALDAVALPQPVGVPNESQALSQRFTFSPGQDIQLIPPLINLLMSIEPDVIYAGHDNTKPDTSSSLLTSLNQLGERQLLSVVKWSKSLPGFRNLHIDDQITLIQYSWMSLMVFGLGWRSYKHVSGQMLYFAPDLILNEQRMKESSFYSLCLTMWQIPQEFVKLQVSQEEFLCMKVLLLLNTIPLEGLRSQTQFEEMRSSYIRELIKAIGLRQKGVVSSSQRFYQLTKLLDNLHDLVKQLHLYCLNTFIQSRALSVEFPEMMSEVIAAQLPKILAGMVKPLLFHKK
In words: Binding towards human progesterone receptor; Not tested.

In test [3] the target is T2, Progesterone receptor.
Description: Antagonistic activity at human progesterone receptor in CV-1 cells.
The target in test [4] is T2, Progesterone receptor. In words: Effective concentration for human progesterone in T47D human breast cancer cell. In kind it is cell-based, Cancer cell lines.
Test [5] addresses T2, Progesterone receptor. In words: Inhibition of human progesterone in T47D human breast cancer cell. In kind it is cell-based.
Test [6] concerns the target T3, Progesterone receptor (Homo sapiens) (UniProt P06401).
T3 sequence (whole entry): T2 sequence (P06401 whole entry)
In words: Antagonist efficacy for human progesterone in T47D human breast cancer cell. In kind it is functional, cell-based.

Test [7] concerns the target T2, Progesterone receptor. In words: Binding towards human progesterone receptor.
Test [8] addresses T2, Progesterone receptor. In words: Effective concentration for antagonistic activity towards human progesterone in CV-1 cells. In kind it is functional, cell-based.
Test [9] deals with T3, Progesterone receptor (Homo sapiens). In words: Antagonist efficacy for human progesterone in CV-1 cells. Type of test: functional, cell-based.
For test [10] the target is unchanged. In words: Agonist efficacy for human progesterone in T47D human breast cancer cell. Type of test: functional, cell-based.
For test [11] the target is unchanged. In words: Agonist efficacy for human progesterone receptor in T47D human breast cancer cell; not active (<20% efficacy and/or >10 mM potency). In kind it is functional, cell-based.
Test [12] has as its target T2, Progesterone receptor. The source holds these as a separate data set.
Description: Inhibition of human progesterone receptor activation in T47D human breast cancer cell.
For test [13], the target named is T2, Progesterone receptor. In words: Effective concentration for human progesterone in T47D human breast cancer cell; not active (<20% efficacy and/or >10 mM potency). Type of test: cell-based. Conditions: cancer cell lines.
Test [14] deals with T4, Glucocorticoid receptor (Homo sapiens, UniProt P04150).
T4 sequence (P04150 whole entry): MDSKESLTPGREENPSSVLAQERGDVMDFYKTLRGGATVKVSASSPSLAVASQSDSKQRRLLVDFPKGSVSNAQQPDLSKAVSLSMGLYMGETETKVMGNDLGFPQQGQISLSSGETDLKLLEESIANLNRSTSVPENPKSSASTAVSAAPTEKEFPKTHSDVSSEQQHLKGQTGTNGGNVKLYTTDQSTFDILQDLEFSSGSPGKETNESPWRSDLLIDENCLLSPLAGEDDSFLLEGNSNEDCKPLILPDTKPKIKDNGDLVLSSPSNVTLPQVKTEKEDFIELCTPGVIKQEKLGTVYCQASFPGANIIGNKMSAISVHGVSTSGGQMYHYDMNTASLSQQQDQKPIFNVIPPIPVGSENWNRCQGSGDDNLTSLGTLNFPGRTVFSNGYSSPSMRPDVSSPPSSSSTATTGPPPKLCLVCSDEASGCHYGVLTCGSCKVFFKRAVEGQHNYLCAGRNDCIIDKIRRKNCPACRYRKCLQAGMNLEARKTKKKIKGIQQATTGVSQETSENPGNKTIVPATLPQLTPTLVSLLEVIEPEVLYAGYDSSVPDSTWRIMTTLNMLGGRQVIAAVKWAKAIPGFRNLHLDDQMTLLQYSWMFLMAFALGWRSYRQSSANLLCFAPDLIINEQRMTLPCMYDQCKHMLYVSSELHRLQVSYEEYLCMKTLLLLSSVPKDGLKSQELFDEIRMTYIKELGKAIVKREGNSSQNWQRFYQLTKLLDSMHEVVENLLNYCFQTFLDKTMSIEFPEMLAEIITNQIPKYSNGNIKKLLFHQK
In words: Inhibition of antagonist activity towards glucocorticoid receptor; not active. Type of test: functional.

The target in test [15] is T1, Estrogen receptor (Homo sapiens). In words: Antagonist efficacy for Estrogen receptor; Not active. Type of test: functional.
Test [16] deals with T5, Mineralocorticoid receptor (Homo sapiens, UniProt P08235).
T5 sequence (P08235 whole entry): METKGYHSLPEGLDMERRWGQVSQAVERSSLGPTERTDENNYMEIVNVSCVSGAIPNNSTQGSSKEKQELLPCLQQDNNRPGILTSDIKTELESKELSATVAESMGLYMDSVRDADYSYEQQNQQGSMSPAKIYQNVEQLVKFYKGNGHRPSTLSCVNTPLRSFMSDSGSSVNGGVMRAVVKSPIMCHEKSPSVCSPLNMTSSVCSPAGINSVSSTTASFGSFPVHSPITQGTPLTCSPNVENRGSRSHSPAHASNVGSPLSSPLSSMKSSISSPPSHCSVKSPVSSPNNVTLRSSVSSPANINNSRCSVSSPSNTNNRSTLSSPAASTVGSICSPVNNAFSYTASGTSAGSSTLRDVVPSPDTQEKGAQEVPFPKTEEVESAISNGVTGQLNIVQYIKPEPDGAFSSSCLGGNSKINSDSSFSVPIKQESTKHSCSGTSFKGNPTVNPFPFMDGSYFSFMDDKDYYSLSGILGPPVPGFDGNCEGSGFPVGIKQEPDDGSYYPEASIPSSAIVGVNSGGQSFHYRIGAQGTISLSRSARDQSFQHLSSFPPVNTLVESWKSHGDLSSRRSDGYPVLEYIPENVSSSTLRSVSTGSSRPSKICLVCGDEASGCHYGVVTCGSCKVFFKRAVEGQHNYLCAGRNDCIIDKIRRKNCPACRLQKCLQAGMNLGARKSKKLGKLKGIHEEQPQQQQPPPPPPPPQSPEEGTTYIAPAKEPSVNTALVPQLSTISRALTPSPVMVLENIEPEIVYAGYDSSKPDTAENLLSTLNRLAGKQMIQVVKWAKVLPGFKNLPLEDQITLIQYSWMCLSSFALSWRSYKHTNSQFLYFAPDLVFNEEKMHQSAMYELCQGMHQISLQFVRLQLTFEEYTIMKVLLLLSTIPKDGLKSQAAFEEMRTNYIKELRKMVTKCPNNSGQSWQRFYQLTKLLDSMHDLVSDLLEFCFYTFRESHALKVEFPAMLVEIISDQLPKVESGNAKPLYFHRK
In words: Inhibition of antagonist activity towards mineralocorticoid receptor (hMR). In kind it is functional.

Test [17] addresses T6, Mineralocorticoid receptor (Homo sapiens) (UniProt P08235).
T6 sequence (whole entry): T5 sequence (P08235 whole entry)
In words: Antagonist efficacy for mineralocorticoid receptor (hMR). Type of test: functional.

The target in test [18] is T7, Glucocorticoid receptor (Homo sapiens) (UniProt P04150).
T7 sequence (whole entry): T4 sequence (P04150 whole entry)
In words: Antagonist efficacy for glucocorticoid receptor; not active. Type of test: functional.

For test [19], the target named is T8, Androgen receptor (Homo sapiens, UniProt P10275).
T8 sequence (P10275 whole entry): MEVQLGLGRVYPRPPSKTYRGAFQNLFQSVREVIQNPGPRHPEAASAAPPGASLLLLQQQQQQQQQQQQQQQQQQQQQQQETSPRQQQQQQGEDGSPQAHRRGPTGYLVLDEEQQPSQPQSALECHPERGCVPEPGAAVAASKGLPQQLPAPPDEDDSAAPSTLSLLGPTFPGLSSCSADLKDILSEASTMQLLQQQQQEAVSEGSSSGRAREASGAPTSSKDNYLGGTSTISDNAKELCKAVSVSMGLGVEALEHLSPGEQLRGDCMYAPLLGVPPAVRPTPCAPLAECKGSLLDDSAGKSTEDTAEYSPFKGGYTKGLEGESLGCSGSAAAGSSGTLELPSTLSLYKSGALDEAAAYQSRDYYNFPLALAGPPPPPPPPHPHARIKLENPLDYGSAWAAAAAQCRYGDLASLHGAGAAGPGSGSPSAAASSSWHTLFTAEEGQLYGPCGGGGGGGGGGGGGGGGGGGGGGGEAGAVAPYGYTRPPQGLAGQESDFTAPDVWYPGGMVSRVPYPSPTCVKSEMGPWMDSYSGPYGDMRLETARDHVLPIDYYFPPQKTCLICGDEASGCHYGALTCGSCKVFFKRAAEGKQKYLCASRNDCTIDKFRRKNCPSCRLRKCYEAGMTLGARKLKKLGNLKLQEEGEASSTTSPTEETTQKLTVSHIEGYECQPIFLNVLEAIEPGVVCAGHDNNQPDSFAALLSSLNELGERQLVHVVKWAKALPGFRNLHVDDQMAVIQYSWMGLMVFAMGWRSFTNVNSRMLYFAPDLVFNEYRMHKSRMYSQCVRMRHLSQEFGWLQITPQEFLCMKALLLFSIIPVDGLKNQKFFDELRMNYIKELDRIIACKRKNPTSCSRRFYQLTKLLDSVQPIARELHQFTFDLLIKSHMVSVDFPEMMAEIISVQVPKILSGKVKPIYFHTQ
Description: Inhibition of antagonist activity towards Androgen receptor

Test [20] concerns the target T2, Progesterone receptor. In words: Effective concentration for human progesterone receptor in T47D human breast cancer cell; not active (<20% efficacy and/or >10 mM potency). Conditions: cancer cell lines.
The target of test [21] is T3, Progesterone receptor (Homo sapiens). In words: Antagonist efficacy for human progesterone receptor in CV-1 cells; not active (<20% efficacy and/or >10 mM potency). Type of test: functional, cell-based.
Test [22] addresses T2, Progesterone receptor. In words: Effective concentration for antagonistic activity towards human progesterone receptor in CV-1 cells; not active (<20% efficacy and/or >10 mM potency). In kind it is functional, cell-based.
Test [23] concerns the target T2, Progesterone receptor. This is another data set of the same source.
Description: Binding affinity at human progesterone receptor.
In test [24] the target is T2, Progesterone receptor. In words: Inhibition of human progesterone receptor in T47D human breast cancer cell; not active (<20% efficacy and/or >10 mM potency). Type of test: cell-based.

Calls of active or inactive are those of the source. A value given as a limit tells only on which side of the number the result lay.

The record followed here is ChEMBL document CHEMBL1144945, “Development of progesterone receptor antagonists from 1,2-dihydrochromeno[3,4-f]quinoline agonist pharmacophore” (Bioorg Med Chem Lett, 2003).

In test [1], `CC#C[C@]1(O)CC[C@H]2[C@@H]3CCC4=CC(=O)CCC4=C3[C@@H](c3ccc(N(C)C)cc3)C[C@@]21C` came in with an Efficacy of 59%.

In general, Ki refers to the equilibrium dissociation constant of an inhibitor or competing ligand from its target. Read a low Ki as tighter binding. Broadly, the EC50 is the midpoint of the concentration-response curve. A lower EC50 goes with an effect from little substance. Compound `CC1=CC(C)(C)Nc2ccc3c(c21)COc1c-3cc(Br)c(C=O)c1F` displayed a Ki in test [2] of 290 nM. This compound registered an EC50 in test [3] of 576 nM.

The IC50 is the concentration needed to halve the response being measured. Read a low IC50 as inhibition by little substance. `COc1ccc2c(c1)OCc1c-2ccc2c1C(C)=CC(C)(C)N2`: the EC50 in test [4] is greater than 1000 nM; in [8], 193 nM. Also, the IC50 in test [5] is 514 nM. In addition, the Efficacy in test [6] was determined as 83%; in test [9], 85%; in [10], 24%. Moreover, in [7], the affinity, expressed as Ki, was 357 nM.

For the compound `CC1=CC(C)(C)Nc2ccc3c(c21)COc1c(Cl)cccc1-3`, the Efficacy entry in [11] was “inactive”. The compound further registered an IC50 in test [12] of 782 nM. In addition, the EC50 in [3] is 576 nM; in [13] it was “Not Active”.

On to `CC1=CC(C)(C)Nc2ccc3c(c21)COc1ccc(F)cc1-3`, for which the IC50 result was “Not Active” in test [14], 3160 nM in test [16] and 1250 nM in [19]. The Efficacy entry in test [15] and in test [18] was “inactive” throughout. For the same compound, in test [17], the Efficacy was 30%.

For the compound `CC1=CC(C)(C)Nc2ccc3c(c21)COc1cc(C(F)(F)F)ccc1-3`, the EC50 result in test [20] and in test [22] was “Not Active” in each case. Besides, the Efficacy entry in test [11] and in [21] was “inactive” throughout. In [23], this compound had a Ki greater than 1000 nM. In addition, the IC50 entry in [24] is “Not Active”.
